According to patent publication US8680012B2, “4-phenyl-pyrane-3,5-diones,4-phenyl-thiopyrane-3,6-diones and cyclohexanetriones as novel herbicides” (Syngenta Crop Protection LLC, priority 2006, dated 2014):

Tests used:
Assay type in all cases: in vivo
[1] = system: Amaranthus retroflexus (AMARE); assay: Example B post-emergence herbicidal activity, glasshouse pot test; conditions: 312 h, evaluated after 13 days, read-out: Post-emergence activity AMARE (100=total damage to plant; 0=no damage to plant); for pest or weed control at 250 g/ha: rate 250 g/ha; for pest or weed control at 1000 g/ha: rate 1000 g/ha
How it was run: (§1)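 One day (pre) or eight days (post) after sowing, pots received a spray of test compound formulated in acetone/water 50:50 with 0.5% Tween 20; plants were then kept under controlled glasshouse conditions with watering twice daily and assessed for damage (0–100) at 13 days.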

Avena fatua (AVEFA) [2] = assay: as above; conditions: 312 h, evaluated after 13 days, read-out: Post-emergence activity AVEFA (100=total damage to plant; 0=no damage to plant); for pest or weed control at 250 g/ha: rate 250 g/ha; for pest or weed control at 1000 g/ha: rate 1000 g/ha
How it was run: as §1

[3] = system: Echinochloa crus-galli (ECHCG); assay: as above; conditions: 312 h, evaluated after 13 days, read-out: Post-emergence activity ECHCG (100=total damage to plant; 0=no damage to plant); for pest or weed control at 250 g/ha: rate 250 g/ha; for pest or weed control at 1000 g/ha: rate 1000 g/ha
How it was run: as §1

[4] = system: Alopecurus myosuroides (ALOMY); assay: as above; conditions: 312 h, evaluated after 13 days, read-out: Post-emergence activity ALOMY (100=total damage to plant; 0=no damage to plant); for pest or weed control at 250 g/ha: rate 250 g/ha; for pest or weed control at 1000 g/ha: rate 1000 g/ha
How it was run: as §1

Setaria faberi (SETFA) [5] = assay: as above; conditions: 312 h, evaluated after 13 days, read-out: Post-emergence activity SETFA (100=total damage to plant; 0=no damage to plant); for pest or weed control at 250 g/ha: rate 250 g/ha; for pest or weed control at 1000 g/ha: rate 1000 g/ha
How it was run: as §1

Solanum nigrum (SOLNI) [6] = assay: as above; conditions: 312 h, evaluated after 13 days, read-out: Post-emergence activity SOLNI (100=total damage to plant; 0=no damage to plant); for pest or weed control at 250 g/ha: rate 250 g/ha; for pest or weed control at 1000 g/ha: rate 1000 g/ha
How it was run: as §1

[7] = system: Amaranthus retroflexus (AMARE); assay: Example B pre-emergence herbicidal activity, glasshouse pot test; conditions: 312 h, evaluated after 13 days, read-out: Pre-emergence activity AMARE (100=total damage to plant; 0=no damage to plant); for pest or weed control at 250 g/ha: rate 250 g/ha; for pest or weed control at 1000 g/ha: rate 1000 g/ha
How it was run: as §1

Avena fatua (AVEFA) [8] = assay: as above; conditions: 312 h, evaluated after 13 days, read-out: Pre-emergence activity AVEFA (100=total damage to plant; 0=no damage to plant); for pest or weed control at 250 g/ha: rate 250 g/ha; for pest or weed control at 1000 g/ha: rate 1000 g/ha
How it was run: as §1

[9] = system: Echinochloa crus-galli (ECHCG); assay: as above; conditions: 312 h, evaluated after 13 days, read-out: Pre-emergence activity ECHCG (100=total damage to plant; 0=no damage to plant); for pest or weed control at 250 g/ha: rate 250 g/ha; for pest or weed control at 1000 g/ha: rate 1000 g/ha
How it was run: as §1

[10] = system: Alopecurus myosuroides (ALOMY); assay: as above; conditions: 312 h, evaluated after 13 days, read-out: Pre-emergence activity ALOMY (100=total damage to plant; 0=no damage to plant); for pest or weed control at 250 g/ha: rate 250 g/ha; for pest or weed control at 1000 g/ha: rate 1000 g/ha
How it was run: as §1

Setaria faberi (SETFA) [11] = assay: as above; conditions: 312 h, evaluated after 13 days, read-out: Pre-emergence activity SETFA (100=total damage to plant; 0=no damage to plant); for pest or weed control at 250 g/ha: rate 250 g/ha; for pest or weed control at 1000 g/ha: rate 1000 g/ha
How it was run: as §1

Solanum nigrum (SOLNI) [12] = assay: as above; conditions: 312 h, evaluated after 13 days, read-out: Pre-emergence activity SOLNI (100=total damage to plant; 0=no damage to plant); for pest or weed control at 250 g/ha: rate 250 g/ha; for pest or weed control at 1000 g/ha: rate 1000 g/ha
How it was run: as §1

Compound	pest or weed control at 250 g/ha [1] [%]	pest or weed control at 250 g/ha (Avena fatua (AVEFA) [2]) [%]	pest or weed control at 250 g/ha [3] [%]	pest or weed control at 250 g/ha [4] [%]	pest or weed control at 250 g/ha (Setaria faberi (SETFA) [5]) [%]	pest or weed control at 250 g/ha (Solanum nigrum (SOLNI) [6]) [%]	pest or weed control at 250 g/ha [7] [%]	pest or weed control at 250 g/ha (Avena fatua (AVEFA) [8]) [%]	pest or weed control at 1000 g/ha [1] [%]	pest or weed control at 1000 g/ha (Avena fatua (AVEFA) [2]) [%]	pest or weed control at 1000 g/ha [3] [%]	pest or weed control at 1000 g/ha [4] [%]	pest or weed control at 1000 g/ha (Setaria faberi (SETFA) [5]) [%]	pest or weed control at 1000 g/ha (Solanum nigrum (SOLNI) [6]) [%]	pest or weed control at 1000 g/ha [7] [%]	pest or weed control at 1000 g/ha (Avena fatua (AVEFA) [8]) [%]	pest or weed control at 1000 g/ha [9] [%]	pest or weed control at 1000 g/ha [10] [%]	pest or weed control at 1000 g/ha (Setaria faberi (SETFA) [11]) [%]	pest or weed control at 1000 g/ha (Solanum nigrum (SOLNI) [12]) [%]	also measured
CCc1ccc(-c2ccc(Cl)c(C#N)c2)cc1C1=C(O)C(C)(C)C(=O)C(C)(C)C1=O [Compound B-27]	0	0	80	70	60	0	0	0													pest or weed control at 250 g/ha [9]: 0%; pest or weed control at 250 g/ha [10]: 0%; pest or weed control at 250 g/ha (Setaria faberi (SETFA) [11]): 0%; pest or weed control at 250 g/ha (Solanum nigrum (SOLNI) [12]): 0%
CCc1ccc(-c2cnc(Cl)cc2C)cc1C1=C(O)C(C)(C)C(=O)C(C)(C)C1=O [Compound B-28]	0	0	70	0	70	0	0	0													pest or weed control at 250 g/ha [9]: 0%; pest or weed control at 250 g/ha [10]: 0%; pest or weed control at 250 g/ha (Setaria faberi (SETFA) [11]): 0%; pest or weed control at 250 g/ha (Solanum nigrum (SOLNI) [12]): 0%
CCc1ccc(-c2ccc(Cl)nc2Cl)cc1C1=C(O)C(C)(C)C(=O)C(C)(C)C1=O [Compound B-29]	20	0	100	30	80	30	0	0													pest or weed control at 250 g/ha [9]: 20%; pest or weed control at 250 g/ha [10]: 0%; pest or weed control at 250 g/ha (Setaria faberi (SETFA) [11]): 30%; pest or weed control at 250 g/ha (Solanum nigrum (SOLNI) [12]): 0%
CCc1ccc(-c2ccc(Cl)nc2C)cc1C1=C(O)C(C)(C)C(=O)C(C)(C)C1=O [Compound B-30]	0	0	70	20	70	10	0	0													pest or weed control at 250 g/ha [9]: 0%; pest or weed control at 250 g/ha [10]: 0%; pest or weed control at 250 g/ha (Setaria faberi (SETFA) [11]): 0%; pest or weed control at 250 g/ha (Solanum nigrum (SOLNI) [12]): 0%
CCc1ccc(-c2ccc(Cl)cc2F)cc1C1=C(O)C(C)(C)C(=O)C(C)(C)C1=O [Compound B-31]	0	0	90	10	90	0	0	20													pest or weed control at 250 g/ha [9]: 50%; pest or weed control at 250 g/ha [10]: 0%; pest or weed control at 250 g/ha (Setaria faberi (SETFA) [11]): 50%; pest or weed control at 250 g/ha (Solanum nigrum (SOLNI) [12]): 0%
CCc1ccc(-c2ccc(Cl)cc2)cc1C1=C(OC(C)=O)C(C)(C)OC(C)(C)C1=O [Compound D-7]									0	70	100	90	100	0	0	30	90	60	100	0	
CCC(=O)OC1=C(c2cc(-c3ccc(Cl)cc3)ccc2CC)C(=O)C(C)(C)OC1(C)C [Compound D-8]									0	10	100	60	100	0	0	0	90	40	90	0	
CCc1ccc(-c2ccc(Cl)cc2)cc1C1=C(OC(=O)C(C)C)C(C)(C)OC(C)(C)C1=O [Compound D-9]									0	0	100	30	90	0	0	0	70	20	90	0	
CCc1ccc(-c2ccc(Cl)cc2)cc1C1=C(OC(=O)C2CC2)C(C)(C)OC(C)(C)C1=O [Compound D-10]									20	20	100	90	100	0	0	0	100	50	100	0	
CCc1ccc(-c2ccc(Cl)cc2)cc1C1=C(OC(=O)C(C)CC)C(C)(C)OC(C)(C)C1=O [Compound D-11]									0	0	100	40	90	0	0	0	20	20	90	0	
CCc1ccc(-c2ccc(Cl)cc2)cc1C1=C(OC(=O)COC)C(C)(C)OC(C)(C)C1=O [Compound D-12]									0	90	100	90	100	0	0	60	100	90	100	0	
CCOC(=O)OC1=C(c2cc(-c3ccc(Cl)cc3)ccc2CC)C(=O)C(C)(C)OC1(C)C [Compound D-13]									0	0	100	60	100	0	0	20	90	50	90	0	
